# In the supplement of paper PMC10307832:
# Columns and labels:
# Assay in all cases: relative viability (nuclei count vs DMSO), 5 days (fraction); higher = more cells survive
# [1] = test system: NCI-H358
# Procedure, shortened: (§1)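 A single step with final 0.05% Triton X-100, 1% formaldehyde and 1 ug/ml Hoechst fixed the cells and stained nuclei 5 days after treatment. Lung cancer cell lines in 1536-well plates had been treated by pin tool the day after seeding with one drug alone or a fixed anchor-drug dose plus five library-drug doses (not always all listed) in √10 steps, and nuclei were counted on 4× images. Relative viability is the ratio of nuclei in treated wells to nuclei in vehicle wells, taken as the median of duplicate plates.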
# [2] = test system: COR-L 105
# Procedure, shortened: as §1
# [3] = test system: EPLC-272H
# Procedure, shortened: as §1
# [4] = test system: BEN
# Procedure, shortened: as §1
# [5] = test system: H3255
# Procedure, shortened: as §1
# [6] = test system: NCI-H2087
# Procedure, shortened: as §1
# [7] = test system: SW 1573
# Procedure, shortened: as §1
# [8] = test system: HOP-62
# Procedure, shortened: as §1
# [9] = test system: NCI-H2085
# Procedure, shortened: as §1
# [10] = test system: PC-3 [JPC-3]
# Procedure, shortened: as §1
# [11] = test system: NCI-H647
# Procedure, shortened: as §1
# [12] = test system: LCLC-97TM1
# Procedure, shortened: as §1
# [13] = test system: NCI-H1975
# Procedure, shortened: as §1
# [14] = test system: NCI-H1395
# Procedure, shortened: as §1
# [15] = test system: HCC-44
# Procedure, shortened: as §1
# [16] = test system: NCI-H1437
# Procedure, shortened: as §1
# [17] = test system: LOU-NH91
# Procedure, shortened: as §1
# [18] = test system: 201T
# Procedure, shortened: as §1
# [19] = test system: NCI-H1666
# Procedure, shortened: as §1
# [20] = test system: LU99A
# Procedure, shortened: as §1
# [21] = test system: HCC-827
# Procedure, shortened: as §1
# [22] = test system: EKVX
# Procedure, shortened: as §1
smiles,measurement,setting,value
Oc1nc(-c2ccc(C(F)(F)F)cc2)nc2c1CSCC2 [XAV939] + C[C@]1(O)C[C@@H](c2nc(-c3ccc4ccc(-c5ccccc5)nc4c3)c3c(N)nccn32)C1 [Linsitinib] (partner 1 µM),relative viability,[1]; first compound 0.08 µM,0.832
same,relative viability,[1]; first compound 0.253 µM,0.551
same,relative viability,[1]; first compound 0.8 µM,0.655
same,relative viability,[1]; first compound 2.53 µM,0.558
same,relative viability,[2]; first compound 0.08 µM,1
same,relative viability,[2]; first compound 0.253 µM,0.98
same,relative viability,[2]; first compound 0.8 µM,0.868
same,relative viability,[2]; first compound 2.53 µM,0.561
same,relative viability,[3]; first compound 0.08 µM,1.3
same,relative viability,[3]; first compound 0.253 µM,1.08
same,relative viability,[3]; first compound 0.8 µM,1.18
same,relative viability,[3]; first compound 2.53 µM,1.09
same,relative viability,[4]; first compound 0.08 µM,1.17
same,relative viability,[4]; first compound 0.253 µM,0.894
same,relative viability,[4]; first compound 0.8 µM,0.934
same,relative viability,[5]; first compound 0.08 µM,0.981
same,relative viability,[5]; first compound 0.253 µM,0.843
same,relative viability,[5]; first compound 0.8 µM,1.05
same,relative viability,[5]; first compound 2.53 µM,0.784
same,relative viability,[6]; first compound 0.08 µM,1.14
same,relative viability,[6]; first compound 0.253 µM,0.936
same,relative viability,[6]; first compound 0.8 µM,0.939
same,relative viability,[6]; first compound 2.53 µM,0.672
same,relative viability,[7]; first compound 0.08 µM,0.78
same,relative viability,[7]; first compound 0.253 µM,0.675
same,relative viability,[7]; first compound 0.8 µM,0.739
same,relative viability,[7]; first compound 2.53 µM,0.635
same,relative viability,[8]; first compound 0.08 µM,1.01
same,relative viability,[8]; first compound 0.253 µM,0.882
same,relative viability,[8]; first compound 0.8 µM,0.954
same,relative viability,[8]; first compound 2.53 µM,0.939
same,relative viability,[9]; first compound 0.08 µM,0.811
same,relative viability,[9]; first compound 0.253 µM,0.771
same,relative viability,[9]; first compound 0.8 µM,0.91
same,relative viability,[9]; first compound 2.53 µM,0.888
same,relative viability,[10]; first compound 0.08 µM,0.916
same,relative viability,[10]; first compound 0.253 µM,0.863
same,relative viability,[10]; first compound 0.8 µM,1
same,relative viability,[10]; first compound 2.53 µM,0.874
same,relative viability,[11]; first compound 0.08 µM,1.13
same,relative viability,[11]; first compound 0.253 µM,0.864
same,relative viability,[11]; first compound 0.8 µM,1.06
same,relative viability,[11]; first compound 2.53 µM,1.02
same,relative viability,[12]; first compound 0.08 µM,0.192
same,relative viability,[12]; first compound 0.253 µM,0.19
same,relative viability,[12]; first compound 0.8 µM,0.206
same,relative viability,[12]; first compound 2.53 µM,0.167
same,relative viability,[13]; first compound 0.08 µM,0.854
same,relative viability,[13]; first compound 0.253 µM,0.711
same,relative viability,[13]; first compound 0.8 µM,0.97
same,relative viability,[13]; first compound 2.53 µM,0.673
same,relative viability,[14]; first compound 0.08 µM,1.09
same,relative viability,[14]; first compound 0.253 µM,1.04
same,relative viability,[14]; first compound 0.8 µM,1.11
same,relative viability,[14]; first compound 2.53 µM,0.974
same,relative viability,[15]; first compound 0.08 µM,0.789
same,relative viability,[15]; first compound 0.253 µM,0.673
same,relative viability,[15]; first compound 0.8 µM,0.659
same,relative viability,[15]; first compound 2.53 µM,0.651
same,relative viability,[16]; first compound 0.08 µM,1.21
same,relative viability,[16]; first compound 0.253 µM,0.878
same,relative viability,[16]; first compound 0.8 µM,0.873
same,relative viability,[16]; first compound 2.53 µM,0.477
same,relative viability,[17]; first compound 0.08 µM,0.903
same,relative viability,[17]; first compound 0.253 µM,0.842
same,relative viability,[17]; first compound 0.8 µM,0.996
same,relative viability,[17]; first compound 2.53 µM,0.911
same,relative viability,[18]; first compound 0.08 µM,0.937
same,relative viability,[18]; first compound 0.253 µM,0.8
same,relative viability,[18]; first compound 0.8 µM,0.857
same,relative viability,[18]; first compound 2.53 µM,0.873
same,relative viability,[19]; first compound 0.08 µM,0.816
same,relative viability,[19]; first compound 0.253 µM,0.598
same,relative viability,[19]; first compound 0.8 µM,0.712
same,relative viability,[19]; first compound 2.53 µM,0.568
same,relative viability,[20]; first compound 0.08 µM,0.556
same,relative viability,[20]; first compound 0.253 µM,0.446
same,relative viability,[20]; first compound 0.8 µM,0.505
same,relative viability,[20]; first compound 2.53 µM,0.44
same,relative viability,[21]; first compound 0.08 µM,0.995
same,relative viability,[21]; first compound 0.253 µM,0.91
same,relative viability,[21]; first compound 0.8 µM,0.952
same,relative viability,[21]; first compound 2.53 µM,0.942
same,relative viability,[22]; first compound 0.08 µM,1.07
same,relative viability,[22]; first compound 0.253 µM,0.776
same,relative viability,[22]; first compound 0.8 µM,0.831
same,relative viability,[22]; first compound 2.53 µM,0.623
